# Test system: NFAT
# Assay: NFAT activation assay (luciferase reporter, PMA and ionomycin)
# Assay type: cell-based
# Conditions: Homo sapiens; 10 μM compound; Jurkat cells; 15 nM PMA and 0.5 μM ionomycin; 18 hours; read-out: Activity 10 μM (% inhibition of NFAT luciferase luminescence)
# Procedure: Jurkat cells (BPS Bioscience catalog No. 60621) were seeded at 40,000 cells per well into white clear-bottom 96-well microplate in 80 μl of growth medium without Geneticin. 10 μl of testing compounds (final 10 μM) were added to each well and preincubated with cells for half an hour. Then 10 μl of PMA and ionomycin mixture were added to each well to make the final concentration of 15 nM PMA and 0.5 μM ionomycin. Cells were incubated at 37° C. and 5% CO2 incubator for 18 hours. After treatment, cells were lysed and the luciferase assay was performed using ONE-Step luciferase assay system by adding 100 μl of One-Step Luciferase reagent (BPS Bioscience catalog No. 60690) per well followed by rocking at room temperature for about 30 minutes. Luminescence was measured using a luminometer (BioTek Synergym™ 2 microplate reader). The percent luminescence in the presence of each compound was calculated according to the following equation: % Luminescence=(L−Lb)/(Lt−Lb), where L=the luminescence intensity in the presence of the compound, Lb=the luminescence intensity in the absence of cells, and Lt=the luminescence intensity in the absence of the compound. The percent inhibition was calculated by: % inhibition=100−(% Luminescence).
row,SMILES,inhibition at 10 µM [%]
1,"O=C(Nc1c(F)cccc1F)c1ccn(CC2CC2)n1 [Example 21, 1-(cyclopropylmethyl)-N-(2,6-difluorophenyl)-1H-pyrazole-3-carboxamide]",< 25
2,"O=C(Nc1ccncc1F)c1nn(CC2CC2)c2c1CCCC2 [Example 25, 1-(cyclopropylmethyl)-N-(3-fluoropyridin-4-yl)-4,5,6,7-tetrahydro-1H-indazole-3-carboxamide]",> 75
3,"Cc1cnccc1NC(=O)c1nn(CC2CC2)c2ccccc12 [Example 6, 1-(cyclopropylmethyl)-N-(3-methylpyridin-4-yl)-1H-indazole-3-carboxamide]",> 75
4,"CN(C(=O)c1cn(CC2CC2)c2ccccc12)c1ccncc1F [Example 14, 1-(cyclopropylmethyl)-N-(3-fluoropyridin-4-yl)-N-methyl-1H-indole-3-carboxamide]",< 25
5,"O=C(Nc1ccncc1F)c1nn(CC2CC2)c2ccc(F)cc12 [Example 37, 1-(cyclopropylmethyl)-5-fluoro-N-(3-fluoropyridin-4-yl)-1H-indazole-3-carboxamide]",> 75
6,"O=C(Nc1c(F)cccc1F)c1nn(CC2CC2)c2c1CCCC2 [Example 26, 1-(cyclopropylmethyl)-N-(2,6-difluorophenyl)-4,5,6,7-tetrahydro-1H-indazole-3-carboxamide]",51 to 75
7,"O=C(Nc1ccncc1F)c1cn(CC2CC2)c2cnccc12 [Example 16, 1-(cycloproylmethyl)-N-(3-fluoropyridin-4-yl)-1H-pyrrolo[2,3-c]pyridine-3-carboxamide]",< 25
8,"Cc1cnccc1C(=O)Nc1ccn(CC2CC2)n1 [Example 30, N-[1-(cyclopropylmethyl)-1H-pyrazol-3-yl]-3-methylpyridine-4-carboxamide]",< 25
9,"O=C(Nc1ccncc1F)c1cn(CC2CC2)c2cccnc12 [Example 18, 1-(cycloproylmethyl)-N-(3-fluoropyridin-4-yl)-1H-pyrrolo[3,2-b]pyridine-3-carboxamide]",26 to 50
10,"Cc1cnccc1NC(=O)c1cn(CC2CCC2)c2ccccc12 [Example 9, 1-(cyclobutylmethyl)-N-(3-methylpyridin-4-yl)-1H-indole-3-carboxamide]",> 75
11,"O=C(Nc1ccncc1F)c1nn(CC2CC2)c2c(F)cccc12 [Example 39, 1-(cyclopropylmethyl)-7-fluoro-N-(3-fluoropyridin-4-yl)-1H-indazole-3-carboxamide]",51 to 75
12,"O=C(Nc1c(F)cncc1F)c1cn(CC2CCC2)c2ccccc12 [Example 7, 1-(cyclobutylmethyl)-N-(3,5-difluoropyridin-4-yl)-1H-indole-3-carboxamide]",51 to 75
13,"Cc1cnccc1NC(=O)c1nn(CC2CC2)c2c1CCCC2 [Example 42, 1-(cyclopropylmethyl)-N-(3-methylpyridin-4-yl)-4,5,6,7-tetrahydro-1H-indazole-3-carboxamide]",> 75
14,"Cc1cnccc1NC(=O)c1nn(CC2CCC2)c2c1CCCC2 [Example 40, 1-(cyclobutylmethyl)-N-(3-methylpyridin-4-yl)-4,5,6,7-tetrahydro-1H-indazole-3-carboxamide]",> 75
15,"O=C(Nc1c(F)cncc1F)c1cn(CC2CC2)c2ccccc12 [Example 3, 1-(cyclopropylmethyl)-N-(3,5-difluoropyridin-4-yl)-1H-indole-3-carboxamide]",51 to 75
16,"O=C(Nc1ccncc1F)c1nn(CC2CCC2)c2ccccc12 [Example 10, 1-(cyclobutylmethyl)-N-(3-fluoropyridin-4-yl)-1H-indazole-3-carboxamide]",> 75
17,"Cc1ccc2c(c1)c(C(=O)Nc1ccncc1F)nn2CC1CC1 [Example 34, 1-(cyclopropylmethyl)-N-(3-fluoropyridin-4-yl)-5-methyl-1H-indazole-3-carboxamide]",> 75
18,"Cc1c(C(=O)Nc2ccncc2F)c2ccccc2n1CC1CC1 [Example 43, 1-(cyclopropylmethyl)-N-(3-fluoropyridin-4-yl)-2-methyl-1H-indole-3-carboxamide]",> 75

row,SMILES,inhibition at 10 µM [%]
1,"O=C(Nc1ccncc1F)c1nn(CC2CC2)c2cc(Cl)ccc12 [Example 35, 6-chloro-1-(cyclopropylmethyl)-N-(3-fluoropyridin-4-yl)-1H-indazole-3-carboxamide]",51 to 75
2,"O=C(Nc1ccn(CC2CC2)n1)c1c(F)cncc1F [Example 27, N-(1-(cyclopropylmethyl)-1H-pyrazol-3-yl)-3,5-difluoroisonicotinamide]",26 to 50
3,"O=C(Nc1ccncc1F)c1nn(CC2CCC2)c2c1CCCC2 [Example 33, 1-(cyclobutylmethyl)-N-(3-fluoropyridin-4-yl)-4,5,6,7-tetrahydro-1H-indazole-3-carboxamide]",> 75
4,"O=C(Nc1ccncc1F)c1ccn(CC2CC2)n1 [Example 20, 1-(cyclopropylmethyl)-N-(3-fluoropyridin-4-yl)-1H-pyrazole-3-carboxamide]",51 to 75
5,"Cc1cnccc1NC(=O)c1nn(CC2CCC2)c2ccccc12 [Example 11, 1-(cyclobutylmethyl)-N-(3-methylpyridin-4-yl)-1H-indazole-3-carboxamide]",> 75
6,"O=C(Nc1c(F)cncc1F)c1ccn(CC2CC2)n1 [Example 22, 1-(cyclopropylmethyl)-N-(3,5-difluoropyridin-4-yl)-1H-pyrazole-3-carboxamide]",< 25
7,"O=C(Nc1ccncc1F)c1cn(CC2CC2)c2ncccc12 [Example 5, 1-(cycloproylmethyl)-N-(3-fluoropyridin-4-yl)-1H-pyrrolo[2,3-b]pyridine-3-carboxamide]",26 to 50
8,"O=C(Nc1ccncc1F)c1cn(CC2CC2)c2ccncc12 [Example 17, 1-(cyclopropylmethyl)-N-(3-fluoropyridin-4-yl)-1H-pyrrolo[3,2-c]pyridine-3-carboxamide]",< 25
9,"O=C(Nc1ccncc1F)c1nn(CC2CC2)c2ccc(Br)cc12 [Example 36, 1-(cyclopropylmethyl)-5-bromo-N-(3-fluoropyridin-4-yl)-1H-indazole-3-carboxamide]",51 to 75
10,"O=C(Nc1ccncc1F)c1nn(CC2CC2)c2ncccc12 [Example 31, 1-(cyclopropylmethyl)-N-(3-fluoropyridin-4-yl)-1H-pyrazolo[3,4-b]pyridine-3-carboxamide]",51 to 75
11,"Cc1cnccc1NC(=O)c1nn(CC2CC2)c2c1CCC2 [Example 41, 1-(cycloproylmethyl)-N-(3-methylpyridin-4-yl)-1,4,5,6-tetrahydrocyclopenta[c]pyrazole-3-carboxamide]",51 to 75
12,"O=C(Nc1ccn(CC2CC2)n1)c1ccncc1F [Example 28, N-(1-(cyclopropylmethyl)-1H-pyrazol-3-yl)-3-fluoroisonicotinamide]",< 25
13,"Fc1cnccc1NCc1cn(CC2CC2)c2ccccc12 [Example 15, N-((1-(cyclopropylmethyl)-1H-indol-3-yl)methyl)-3-fluoropyridin-4-amine]",26 to 50
14,"O=C(Nc1ccncc1F)c1nn(CC2CC2)c2c1CCC2 [Example 32, 1-(cycloproylmethyl)-N-(3-fluoropyridin-4-yl)-1,4,5,6-tetrahydrocyclopenta[c]pyrazole-3-carboxamide]",> 75
15,"O=C(Nc1ccncc1F)c1nn(CC2CC2)c2ccccc12 [Example 23, 1-(cyclopropylmethyl)-N-(3-fluoropyridin-4-yl)-1H-indazole-3-carboxamide]",> 75
16,"Cc1cnccc1NC(=O)c1ccn(CC2CC2)n1 [Example 19, 1-(cyclopropylmethyl)-N-(3-methylpyridin-4-yl)-1H-pyrazole-3-carboxamide]",51 to 75
17,"O=C(Nc1ccncc1F)c1cn(CC2COC2)c2ccccc12 [Example 12, N-(3-fluoropyridin-4-yl)-1-(oxetan-3-ylmethyl)-1H-indole-3-carboxamide]",< 25
18,"O=C(Nc1ccncc1F)c1nn(CC2CC2)c2cc(F)ccc12 [Example 38, 1-(cyclopropylmethyl)-6-fluoro-N-(3-fluoropyridin-4-yl)-1H-indazole-3-carboxamide]",> 75

# Test system: Rat mast cells (RBL-2H3 cells)
# Assay: Calcium influx assay (Fluo-4NW, thapsigargin store depletion, Ca2+ re-addition)
# Assay type: cell-based
# Conditions: 1 μM compound, control = DMSO, read-out: Fluo-4NW fluorescence (Ca2+ influx), % of control
# Procedure: Rat mast cells (RBL-2H3 cells) (ATCC) were seeded in 96-well plate at 4×10^4 cells per well in DMEM-supplemented with 2% FBS and allowed to adhere overnight. Culture medium was then replaced with 50 μl of Ca^2+-free Tyrode buffer to load Ca^2+-probe Fluo-4NW (Molecular Probe, Thermo Fisher, MA, USA) per manufacturer instruction. A testing compound at indicated concentrations was supplied during the probe loading from the beginning. Cells were incubated in the presence or absence of a testing compound for 60 minutes in the Ca^2+-free medium at 37° C. During the last 5 minutes of incubation, cells were treated with 1 μM thapsigargin (Tg, Sigma Aldrich) to deplete [Ca^2+]ER, 20 mM CaCl2 in normal saline solution was supplemented back to the [Ca^2+]ER-depleted cells to have 2 mM as final concentration. Culture medium was removed 1 minute after Ca^2+ reloading, and changes in Fluo-4NW fluorescence (RFU) were recorded with the multi-mode plate reader (FilterMax F5, Molecular Devices/Thermo Fisher Scientific, MA, USA) at an excitation wavelength of 485 nm and an emission wavelength of 535 nm. The inhibitory activity of the tested compound was presented as % of control (DMSO).
row,SMILES,activity at 1 µM [%]
1,"Cc1cnccc1NC(=O)c1cn(CC2CCC2)c2ccccc12 [Example 9, 1-(cyclobutylmethyl)-N-(3-methylpyridin-4-yl)-1H-indole-3-carboxamide]",81
2,"O=C(Nc1c(F)cncc1F)c1cn(CC2CCC2)c2ccccc12 [Example 7, 1-(cyclobutylmethyl)-N-(3,5-difluoropyridin-4-yl)-1H-indole-3-carboxamide]",85
3,"O=C(Nc1c(F)cncc1F)c1cn(CC2CC2)c2ccccc12 [Example 3, 1-(cyclopropylmethyl)-N-(3,5-difluoropyridin-4-yl)-1H-indole-3-carboxamide]",66

# Same assay, conditions: 10 μM compound, control = DMSO, read-out: Fluo-4NW fluorescence (Ca2+ influx), % of control
row,SMILES,activity at 10 µM [%]
1,"Cc1cnccc1NC(=O)c1cn(CC2CCC2)c2ccccc12 [Example 9, 1-(cyclobutylmethyl)-N-(3-methylpyridin-4-yl)-1H-indole-3-carboxamide]",65
2,"O=C(Nc1c(F)cncc1F)c1cn(CC2CCC2)c2ccccc12 [Example 7, 1-(cyclobutylmethyl)-N-(3,5-difluoropyridin-4-yl)-1H-indole-3-carboxamide]",80
3,"O=C(Nc1c(F)cncc1F)c1cn(CC2CC2)c2ccccc12 [Example 3, 1-(cyclopropylmethyl)-N-(3,5-difluoropyridin-4-yl)-1H-indole-3-carboxamide]",37
